{"source": "patent US20150005262A1", "about": "“HYPOXIA ACTIVATED PRODRUGS AND MTOR INHIBITORS FOR TREATING CANCER” (THRESHOLD PHARMACEUTICALS, INC., priority 2011, published 2015)", "key": {"mTOR": {"biological_target": "mTOR (Homo sapiens, UniProt P42345)", "conditions": "cited from earlier work"}, "PI3K": {"tested_on": "PI3K", "conditions": "read-out: IC50 for PI3-K; cited from earlier work"}, "DNA-PK": {"biological_target": "DNA-PK (Homo sapiens, UniProt P78527)", "sequence (P78527 whole entry)": "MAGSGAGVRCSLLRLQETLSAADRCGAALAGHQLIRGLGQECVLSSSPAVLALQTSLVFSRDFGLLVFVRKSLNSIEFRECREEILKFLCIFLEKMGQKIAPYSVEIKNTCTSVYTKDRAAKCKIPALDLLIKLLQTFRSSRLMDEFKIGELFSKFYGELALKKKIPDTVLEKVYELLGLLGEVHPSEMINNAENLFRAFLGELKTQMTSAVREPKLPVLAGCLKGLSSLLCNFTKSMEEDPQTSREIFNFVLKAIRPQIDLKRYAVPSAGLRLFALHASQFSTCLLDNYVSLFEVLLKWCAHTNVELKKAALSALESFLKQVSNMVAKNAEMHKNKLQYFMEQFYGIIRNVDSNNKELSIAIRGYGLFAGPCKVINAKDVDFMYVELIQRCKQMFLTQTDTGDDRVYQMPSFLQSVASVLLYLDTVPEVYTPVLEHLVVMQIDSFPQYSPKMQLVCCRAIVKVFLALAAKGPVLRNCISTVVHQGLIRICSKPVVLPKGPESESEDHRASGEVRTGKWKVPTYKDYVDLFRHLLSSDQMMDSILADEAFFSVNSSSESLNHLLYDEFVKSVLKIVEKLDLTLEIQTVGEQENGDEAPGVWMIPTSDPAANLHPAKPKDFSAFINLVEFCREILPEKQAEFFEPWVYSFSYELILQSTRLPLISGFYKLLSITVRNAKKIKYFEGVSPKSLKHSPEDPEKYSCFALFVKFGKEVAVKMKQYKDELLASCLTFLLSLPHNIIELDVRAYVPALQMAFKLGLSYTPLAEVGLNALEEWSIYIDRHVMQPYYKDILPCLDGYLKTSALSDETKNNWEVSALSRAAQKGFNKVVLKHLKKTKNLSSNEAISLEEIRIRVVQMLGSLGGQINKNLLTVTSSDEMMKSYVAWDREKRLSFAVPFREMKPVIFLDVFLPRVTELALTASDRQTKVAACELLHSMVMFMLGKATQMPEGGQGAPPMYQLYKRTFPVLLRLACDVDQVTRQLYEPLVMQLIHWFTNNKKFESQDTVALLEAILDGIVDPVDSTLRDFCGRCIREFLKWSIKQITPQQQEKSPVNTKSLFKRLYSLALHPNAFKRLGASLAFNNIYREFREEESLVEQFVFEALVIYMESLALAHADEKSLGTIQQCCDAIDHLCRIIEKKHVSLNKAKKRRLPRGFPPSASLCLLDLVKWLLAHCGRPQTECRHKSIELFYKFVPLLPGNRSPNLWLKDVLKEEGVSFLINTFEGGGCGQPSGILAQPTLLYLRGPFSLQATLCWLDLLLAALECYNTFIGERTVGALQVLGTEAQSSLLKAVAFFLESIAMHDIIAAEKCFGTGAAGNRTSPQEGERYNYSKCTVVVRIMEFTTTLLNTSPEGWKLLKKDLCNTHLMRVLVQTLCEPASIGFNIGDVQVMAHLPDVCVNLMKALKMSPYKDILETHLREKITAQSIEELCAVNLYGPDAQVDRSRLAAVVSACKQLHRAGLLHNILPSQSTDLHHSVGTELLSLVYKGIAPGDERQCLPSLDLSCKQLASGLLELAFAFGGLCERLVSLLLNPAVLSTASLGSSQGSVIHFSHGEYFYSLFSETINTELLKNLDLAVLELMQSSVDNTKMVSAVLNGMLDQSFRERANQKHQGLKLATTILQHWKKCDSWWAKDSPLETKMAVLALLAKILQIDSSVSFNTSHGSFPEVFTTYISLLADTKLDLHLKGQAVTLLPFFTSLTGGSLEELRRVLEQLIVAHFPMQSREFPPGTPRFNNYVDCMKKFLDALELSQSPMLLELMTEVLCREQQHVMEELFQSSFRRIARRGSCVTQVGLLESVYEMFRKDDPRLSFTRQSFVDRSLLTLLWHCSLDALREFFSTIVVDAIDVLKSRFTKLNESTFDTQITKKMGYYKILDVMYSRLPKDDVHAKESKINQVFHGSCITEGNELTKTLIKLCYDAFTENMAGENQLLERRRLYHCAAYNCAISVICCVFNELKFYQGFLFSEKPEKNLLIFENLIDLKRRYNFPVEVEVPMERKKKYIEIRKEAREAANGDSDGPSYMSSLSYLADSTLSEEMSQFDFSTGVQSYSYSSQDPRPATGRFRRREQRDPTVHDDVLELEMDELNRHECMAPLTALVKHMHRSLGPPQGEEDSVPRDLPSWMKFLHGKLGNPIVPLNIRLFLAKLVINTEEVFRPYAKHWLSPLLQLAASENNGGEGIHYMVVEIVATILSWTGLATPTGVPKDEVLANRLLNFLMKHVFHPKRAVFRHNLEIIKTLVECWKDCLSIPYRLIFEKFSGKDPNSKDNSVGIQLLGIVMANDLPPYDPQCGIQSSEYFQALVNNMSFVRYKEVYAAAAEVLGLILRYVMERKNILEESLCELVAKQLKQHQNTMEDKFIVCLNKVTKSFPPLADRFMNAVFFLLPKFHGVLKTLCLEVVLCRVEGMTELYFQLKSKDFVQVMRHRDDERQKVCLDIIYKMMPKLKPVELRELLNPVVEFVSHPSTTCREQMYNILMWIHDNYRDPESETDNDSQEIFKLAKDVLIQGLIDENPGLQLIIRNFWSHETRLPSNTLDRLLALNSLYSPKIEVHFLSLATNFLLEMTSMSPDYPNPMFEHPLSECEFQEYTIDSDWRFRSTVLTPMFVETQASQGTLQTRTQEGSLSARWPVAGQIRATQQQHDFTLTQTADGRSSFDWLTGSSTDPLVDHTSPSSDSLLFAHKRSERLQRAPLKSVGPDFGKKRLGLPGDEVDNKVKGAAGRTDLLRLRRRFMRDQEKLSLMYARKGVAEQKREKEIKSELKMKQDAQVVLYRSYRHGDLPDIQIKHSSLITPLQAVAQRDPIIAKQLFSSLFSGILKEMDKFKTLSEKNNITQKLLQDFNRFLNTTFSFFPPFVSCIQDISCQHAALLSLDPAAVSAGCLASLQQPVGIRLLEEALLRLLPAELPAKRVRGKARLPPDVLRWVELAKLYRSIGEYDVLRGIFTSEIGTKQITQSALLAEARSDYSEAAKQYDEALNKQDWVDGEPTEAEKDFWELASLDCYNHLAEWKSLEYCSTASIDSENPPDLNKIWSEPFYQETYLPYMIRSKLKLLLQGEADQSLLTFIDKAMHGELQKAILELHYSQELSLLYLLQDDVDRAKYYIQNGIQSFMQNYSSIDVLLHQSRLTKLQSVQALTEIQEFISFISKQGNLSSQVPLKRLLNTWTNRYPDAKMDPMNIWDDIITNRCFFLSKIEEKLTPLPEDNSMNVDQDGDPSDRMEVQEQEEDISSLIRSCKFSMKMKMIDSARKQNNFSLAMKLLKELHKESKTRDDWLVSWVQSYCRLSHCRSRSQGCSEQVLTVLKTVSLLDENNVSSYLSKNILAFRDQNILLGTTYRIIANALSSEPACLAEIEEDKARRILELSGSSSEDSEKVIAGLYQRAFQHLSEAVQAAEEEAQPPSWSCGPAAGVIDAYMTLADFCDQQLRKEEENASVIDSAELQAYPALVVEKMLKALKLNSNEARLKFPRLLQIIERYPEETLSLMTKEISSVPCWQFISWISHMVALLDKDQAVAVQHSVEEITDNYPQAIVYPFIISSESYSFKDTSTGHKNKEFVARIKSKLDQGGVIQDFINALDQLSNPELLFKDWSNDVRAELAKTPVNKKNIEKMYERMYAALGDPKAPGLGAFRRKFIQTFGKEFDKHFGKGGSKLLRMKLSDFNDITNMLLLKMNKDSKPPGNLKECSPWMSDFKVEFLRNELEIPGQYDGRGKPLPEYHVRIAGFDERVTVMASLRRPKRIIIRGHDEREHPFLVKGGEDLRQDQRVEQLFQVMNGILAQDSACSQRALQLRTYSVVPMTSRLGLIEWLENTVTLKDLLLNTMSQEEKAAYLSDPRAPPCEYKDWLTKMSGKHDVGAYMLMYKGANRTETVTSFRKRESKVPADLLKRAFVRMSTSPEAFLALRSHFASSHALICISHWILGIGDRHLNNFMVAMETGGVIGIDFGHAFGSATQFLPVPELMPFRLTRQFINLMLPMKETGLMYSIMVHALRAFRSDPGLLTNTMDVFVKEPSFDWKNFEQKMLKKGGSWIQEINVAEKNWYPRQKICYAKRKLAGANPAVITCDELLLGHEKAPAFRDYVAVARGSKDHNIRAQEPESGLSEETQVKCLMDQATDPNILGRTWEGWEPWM", "conditions": "cited from earlier work"}, "Caki-1 cells [1]": {"tested_on": "Caki-1 cells", "test": "Caki-1 RCC ectopic xenograft, TH-302 with temsirolimus", "format": "in vivo, nude mice", "conditions": "Caki-1 model, temsirolimus 20 mg/kg QD×19 i.p.", "description": "(§1) In one combination therapy group, the temsirolimus and TH-302 administration both began on day 1; in the other combination therapy group, the TH-302 administration was initiated on day 8 after the first temsirolimus administration. Thus, two TH-302 monotherapy groups served as comparison groups (one group starting on day 1 and the other starting on day 8). […] The weight returned to normal when treatment stopped."}, "[2]": {"tested_on": "Caki-1 RCC xenograft tumors", "test": "Tumor hypoxia (pimonidazole, morphometric analysis) in Caki-1 xenograft", "format": "in vivo, nude mice", "conditions": "for tumor hypoxic fraction: temsirolimus 20 mg/kg i.p. QD×8, TH-302 150 mg/kg i.p., sampled 72 hr after TH-302; for change of tumor hypoxia (in words): vs vehicle, combination vs mTOR inhibitor alone", "protocol": "Nude mice bearing 786-0 or Caki-1 RCC xenograft tumors were randomized into 4 groups (6-8 mice/group): vehicle, mTOR inhibitor, TH-302 monotherapy, and TH-302 in combination with mTOR inhibitor, respectively. In the mTOR inhibitor monotherapy group, animals were dosed with a QD×8 regimen, and tumors were sampled 4 hr after the last treatment. In the TH-302 monotherapy group, 150 mg/kg was administered intraperitoneally to the animals, and the tumors were sampled 72 hr after the TH-302 treatment. In the combination therapy group, TH-302 was administered 4 hr after the last dose of mTOR inhibitor (QD×8, oral), and the tumors were sampled 72 hr later. Pimonidazole was administered 1 hr before euthanization (tumors were sampled on euthanization).\nA dose of 20 mg/kg of temsirolimus was administered intraperitoneally in the Caki-1 xenograft model. […] After temsirolimus treatment, the tumor hypoxic fraction was 12.8±0.7%, as compared to 7.5±1.9% in vehicle treated group (p<0.05). The tumor hypoxic fraction in the TH-302 monotherapy group was 4.3±0.7%."}, "SK-N-BE(2) cells": {"tested_on": "SK-N-BE(2) cells", "test": "SK-N-BE(2) ectopic neuroblastoma model, TH-302 with everolimus", "format": "in vivo", "conditions": "SK-N-BE(2) model; everolimus 5 mg/kg QD×19 oral; TH-302 50 mg/kg QD×5/week×3 weeks i.p."}, "786-0 cells [3]": {"tested_on": "786-0 cells", "test": "786-0 RCC ectopic xenograft, TH-302 with everolimus", "format": "in vivo, nude mice", "conditions": "786-0 model; everolimus 5 mg/kg QD×19 p.o.; TH-302 50 mg/kg QD×5/week×3 weeks i.p.; both started day 1"}, "[4]": {"tested_on": "786-0 RCC xenograft tumors", "test": "Tumor hypoxia (pimonidazole, morphometric analysis) in 786-0 xenograft", "format": "in vivo, nude mice", "conditions": "for tumor hypoxic fraction: everolimus 5 mg/kg oral QD×8, TH-302 150 mg/kg i.p., sampled 72 hr after TH-302"}, "Caki-1 cells [5]": {"tested_on": "Caki-1 cells", "test": "Caki-1 RCC ectopic xenograft, TH-302 with everolimus", "format": "in vivo, nude mice", "conditions": "Caki-1 model; everolimus 5 mg/kg QD×19 p.o.; TH-302 50 mg/kg QD×5/week×3 weeks i.p.; both started day 1"}, "786-0 cells [6]": {"tested_on": "786-0 cells", "test": "786-0 RCC ectopic xenograft, TH-302 with temsirolimus", "format": "in vivo, nude mice", "conditions": "786-0 model; temsirolimus 20 mg/kg QD×19 i.p.; TH-302 50 mg/kg QD×5/week×2 to 3 weeks i.p.; combination range covers day 1 and day 8 schedules", "description": "as §1"}, "Ki67, CD31, p-S6": {"tested_on": "Ki67, CD31, p-S6", "test": "Pharmacodynamic study using immunohistochemistry of tumor tissue", "format": "in vivo, nude mice", "conditions": "after 7 days treatment of everolimus"}, "NCI-60 cell lines panel": {"tested_on": "NCI-60 cell lines panel", "conditions": "cited from earlier work"}}, "note": "Entries after “also recorded” stand apart in the source; their conditions may differ.", "data": [{"smiles": "COC(=O)Nc1ccc(-c2nc(N3CCOCC3)c3cnn(C4CCN(C(=O)OC)CC4)c3n2)cc1", "note": "[WYE-354]", "values": [{"measurement": "IC50", "setting": "mTOR", "result": 5, "unit": "nM"}]}, {"smiles": "O=c1cc(N2CCOCC2)oc2c(-c3cccc4c3sc3ccccc34)cccc12", "note": "[NU7441]", "values": [{"measurement": "IC50", "setting": "PI3K", "result": 5000, "unit": "nM"}, {"measurement": "IC50", "setting": "mTOR", "result": 1700, "unit": "nM"}, {"measurement": "IC50", "setting": "DNA-PK", "result": 10, "unit": "nM"}]}, {"smiles": "Cn1c(COP(=O)(NCCBr)NCCBr)cnc1[N+](=O)[O-]", "note": "[TH-302]", "values": [{"measurement": "tumor growth inhibition (TGI)", "setting": "Caki-1 cells [1]; TH-302 50 mg/kg i.p. starting on day 1", "result": 79, "unit": "%"}, {"measurement": "tumor growth inhibition (TGI)", "setting": "Caki-1 cells [1]; TH-302 50 mg/kg i.p. starting on day 8", "result": 89, "unit": "%"}, {"measurement": "tumor hypoxic fraction", "setting": "[2]", "result": "4.3±0.7", "unit": "%"}, {"measurement": "change of tumor hypoxia (in words)", "setting": "[2]", "result": "reduces the size of the hypoxic region"}, {"measurement": "tumor growth inhibition (TGI)", "setting": "SK-N-BE(2) cells", "result": 45, "unit": "%"}, {"measurement": "tumor growth inhibition (TGI)", "setting": "786-0 cells [3]", "result": "did not demonstrate statistically significant efficacy; also recorded: did not demonstrate statistically significant TGI"}, {"measurement": "tumor hypoxic fraction", "setting": "[4]", "result": "3.7±1.2", "unit": "%"}, {"measurement": "tumor growth inhibition (TGI)", "setting": "Caki-1 cells [5]", "result": 57, "unit": "%"}]}, {"smiles": "CNC(=O)Nc1ccc(-c2nc(N3CC4CCC(C3)O4)c3cnn(C4CCC5(CC4)OCCO5)c3n2)cc1", "note": "[WYE-125132]", "values": [{"measurement": "IC50", "setting": "mTOR", "result": 0.19, "unit": "nM"}]}, {"smiles": "CO[C@H]1C[C@@H]2CC[C@@H](C)[C@@](O)(O2)C(=O)C(=O)N2CCCC[C@H]2C(=O)O[C@H]([C@H](C)C[C@@H]2CC[C@@H](OC(=O)C(C)(CO)CO)[C@H](OC)C2)CC(=O)[C@H](C)/C=C(\\C)[C@@H](O)[C@@H](OC)C(=O)[C@H](C)C[C@H](C)/C=C/C=C/C=C/1C", "note": "[temsirolimus]", "values": [{"measurement": "tumor hypoxic fraction", "setting": "[2]", "result": "12.8±0.7", "unit": "%"}, {"measurement": "change of tumor hypoxia (in words)", "setting": "[2]", "result": "significant increase of tumor hypoxia; also recorded: significantly increases tumor hypoxia"}, {"measurement": "tumor growth inhibition (TGI)", "setting": "786-0 cells [6]", "result": 113, "unit": "%"}]}, {"smiles": "c1cncc(CN2CCC(n3ncc4c(N5CCOCC5)nc(-c5ccc6[nH]ccc6c5)nc43)CC2)c1", "note": "[WAY-600]", "values": [{"measurement": "IC50", "setting": "mTOR", "result": 9, "unit": "nM"}]}, {"smiles": "CO[C@H]1C[C@@H]2CC[C@@H](C)[C@@](O)(O2)C(=O)C(=O)N2CCCC[C@H]2C(=O)O[C@H]([C@H](C)C[C@@H]2CC[C@@H](OCCO)[C@H](OC)C2)CC(=O)[C@H](C)/C=C(\\C)[C@@H](O)[C@@H](OC)C(=O)[C@H](C)C[C@H](C)/C=C/C=C/C=C/1C", "note": "[everolimus]", "values": [{"measurement": "cell proliferation (expression of nuclear antigen Ki67)", "setting": "Ki67, CD31, p-S6", "result": "significantly decreased"}, {"measurement": "microvessel density (angiogenic marker CD31)", "setting": "Ki67, CD31, p-S6", "result": "significantly decreased"}, {"measurement": "phosphorylation of the S6 ribosomal protein (p-S6)", "setting": "Ki67, CD31, p-S6", "result": "significantly decreased"}, {"measurement": "tumor growth inhibition (TGI)", "setting": "SK-N-BE(2) cells", "result": 40, "unit": "%"}, {"measurement": "IC50", "setting": "mTOR", "result": 0.6, "unit": "nM"}, {"measurement": "tumor growth inhibition (TGI)", "setting": "786-0 cells [3]", "result": 49, "unit": "%"}, {"measurement": "tumor hypoxic fraction", "setting": "[4]", "result": "6.3±1.5", "unit": "%"}, {"measurement": "change of tumor hypoxia (in words)", "setting": "[4]; vs vehicle, combination vs mTOR inhibitor alone", "result": "increased hypoxia in the tumor; also recorded: significantly increases tumor hypoxia"}, {"measurement": "tumor growth inhibition (TGI)", "setting": "Caki-1 cells [5]", "result": 52, "unit": "%"}]}, {"smiles": "COc1ccc(COc2cc3oc(=O)c4cc(C(C)O)ccc4c3cc2OC)cc1", "note": "(stereo not drawn) [Palomid 529]", "values": [{"measurement": "GI50", "setting": "NCI-60 cell lines panel", "result": "< 35000", "unit": "nM"}]}]}
